# Read-outs that look alike come from different tables or passages of the source.
# Legend:
# bio burden = details: for Log reduction in bio burden: KIMGUARD bag, air RH=20% at 12 m/s over exterior
# [1] = rabbits, EU criteria (ECETOC, 1996); solution of 35% or less; cited from earlier work
substance,measurement,setting,value
hydrogen peroxide [H2O2],Pennicylinders Plate count,"bio burden; Expt A: initial H2O2 10%, nebulizer 2/18 sec ON/Off for 2 mins, total exposure 5 mins, 40 °C in bag",0
same,Pennicylinders Log reduction of bio burden,"bio burden; Expt A: initial H2O2 10%, nebulizer 2/18 sec ON/Off for 2 mins, total exposure 5 mins, 40 °C in bag, 0.0338 g/L delivered",6.0
same,Pennicylinders Plate count,"bio burden; Expt B: initial H2O2 30%, nebulizer 8/12 sec ON/Off for 2 mins, total exposure 2 mins, 44 °C in bag",0
same,Pennicylinders Log reduction of bio burden,"bio burden; Expt B: initial H2O2 30%, nebulizer 8/12 sec ON/Off for 2 mins, total exposure 2 mins, 44 °C in bag, 0.246 g/L delivered",6.0
same,Log reduction in bio burden,bio burden; within 2 minutes nebulising a 30% peroxide solution,6
same,Log reduction in bio burden,bio burden; within 5 minutes nebulising a 10% peroxide solution,6
same,Classification as skin irritant,[1],would not be classified as skin irritants

# — US9192164B2, “Membrane sterilization” (SABAN VENTURES PTY LIMITED, priority 2005, dated 2015)
